The record followed here is US20230159453A1 (COCRYSTAL PHARMA, INC., priority 2020, published 2023).

In this assay the target is SARS2 protease (Severe acute respiratory syndrome coronavirus 2, UniProt P0DTD1). The experiment in a line: SARS-CoV-2 protease inhibition assay (SARS2 FRET protease assay). The note with it: SARS-CoV-2 protease 25 nM, FRET, peptide substrate 1.3 μM, 30 minutes at 30° C., compounds 20 μM to 1.0 nM; read-out: IC50. It is filed as biochemical.

Broadly, the pIC50 is the negative decadic logarithm of the IC50, by convention in mol/L.

pIC50: −log10 of the molar value. Where only a bound is given, the exact number is not on record here.

With `O=CC(CC1CC2(CCC2)NC1=O)NC(=O)[C@H](CC1CCCCC1)NC(=O)OCc1cccc(Cl)c1` (stereo partly drawn) [Compound C229, 3-Chlorobenzyl ((2S)-3-cyclohexyl-1-oxo-1-((1-oxo-3-(6-oxo-5-azaspiro[3.4]octan-7-yl)propan-2-yl)amino)propan-2-yl)carbamate], the pIC50 was 9.10.
For `CC(C)C[C@H](NC(=O)OC(Cc1ccccc1)C(C)C)C(=O)N[C@H](C=O)C[C@@H]1CCNC1=O` (stereo partly drawn) [Compound C230, 3-Methyl-1-phenylbutan-2-yl ((S)-4-methyl-1-oxo-1-(((S)-1-oxo-3-((S)-2-oxopyrrolidin-3-yl)propan-2-yl)amino)pentan-2-yl)carbamate] the value was 7.15; for `CC(C)(C)C(OC(=O)N[C@@H](CC1CCCCC1)C(=O)N[C@@H](C[C@@H]1CCNC1=O)C(=O)C(N)=O)c1ccccc1` (stereo partly drawn) [Compound C231, 2,2-Dimethyl-1-phenylpropyl ((S)-1-(((S)-4-amino-3,4-dioxo-1-((S)-2-oxopyrrolidin-3-yl)butan-2-yl)amino)-3-cyclohexyl-1-oxopropan-2-yl) carbamate], 5.74.
For `CCOC(=O)/C=C/[C@H](C[C@@H]1CCNC1=O)NC(=O)[C@H](CC(C)C)NC(=O)OC(Cc1ccccc1)c1ccccc1` (stereo partly drawn) [Compound C232, Ethyl (4S, E)-4-((2S)-2-(((1,2-diphenylethoxy)carbonyl)amino)-4-methylpentanamido)-5-((S)-2-oxopyrrolidin-3-yl) pent-2-enoate], the pIC50 is 4.82.
For `COc1cccc2[nH]c(C(=O)N[C@@H](CC(C)C)C(=O)NC(CC3CC4(CCCCC4)NC3=O)C(=O)CO)cc12` (stereo partly drawn) [Compound C233, N-((2S)-1-((4-hydroxy-3-oxo-1-(2-oxo-1-azaspiro[4.5]decan-3-yl)butan-2-yl)amino)-4-methyl-1-oxopentan-2-yl)-4-methoxy-1H-indole-2-carboxamide] the value was 7.70; for `COc1cccc2[nH]c(C(=O)N[C@@H](CC(C)C)C(=O)NC(CC3CC4(CCCCC4)NC3=O)C(=O)C(=O)NC3CC3)cc12` (stereo partly drawn) [Compound C234, N-((2S)-1-((4-(cyclopropylamino)-3,4-dioxo-1-(2-oxo-1-azaspiro[4.5]decan-3-yl)butan-2-yl)amino)-4-methyl-1-oxopentan-2-yl)-4-methoxy-1H-indole-2-carboxamide], 9.10; for `CC(C)(c1cccc(Cl)c1)C(OC(=O)N[C@@H](CC1CCCCC1)C(=O)N[C@@H](C[C@@H]1CCNC1=O)C(=O)C(=O)O)c1ccc2ccccc2c1` (stereo partly drawn) [Compound C235, (3S)-3-((2S)-2-(((2-(3-Chlorophenyl)-2-methyl-1-(naphthalen-2-yl)propoxy)carbonyl)amino)-3-cyclohexylpropanamido)-2-oxo-4-((S)-2-oxopyrrolidin-3-yl)butanoic acid], 7.15.
On to `CC(C)C[C@H](NC(=O)OC(c1ccccc1)C(C)(C)c1cccc(Cl)c1)C(=O)N[C@@H](C[C@@H]1CCNC1=O)C(=O)CO` (stereo partly drawn) [Compound C236, 2-(3-Chlorophenyl)-2-methyl-1-phenylpropyl ((S)-1-(((S)-4-hydroxy-3-oxo-1-((S)-2-oxopyrrolidin-3-yl)butan-2-yl)amino)-4-methyl-1-oxopentan-2-yl)carbamate], for which the pIC50 was 6.57.
As to `CC(C)C[C@H](NC(=O)OC(Cc1ccccc1)C1CCCCC1)C(=O)N[C@H](C=O)C[C@@H]1CCNC1=O` (stereo partly drawn) [Compound C237, 1-Cyclohexyl-2-phenylethyl ((S)-4-methyl-1-oxo-1-(((S)-1-oxo-3-((S)-2-oxopyrrolidin-3-yl)propan-2-yl)amino)pentan-2-yl)carbamate], the pIC50 was 8.52.
For `CC(C)C[C@H](NC(=O)OC(c1ccc(F)cc1)C(C)(C)c1cccc(Cl)c1)C(=O)N[C@H](C=O)C[C@@H]1CCNC1=O` (stereo partly drawn) [Compound C238, 2-(3-chlorophenyl)-1-(4-fluorophenyl)-2-methylpropyl ((S)-4-methyl-1-oxo-1-(((S)-1-oxo-3-((S)-2-oxopyrrolidin-3-yl)propan-2-yl)amino)pentan-2-yl)carbamate] the value was 10.00; for `CC(C)C[C@H](NC(=O)OC1CCCC1Cc1cccc(Cl)c1)C(=O)N[C@@H](C[C@@H]1CCNC1=O)C(=O)NS(=O)(=O)C1CC1` (stereo partly drawn) [Compound C239, 2-(3-Chlorobenzyl) cyclopentyl ((S)-1-(((S)-1-(cyclopropanesulfonamido)-1-oxo-3-((S)-2-oxopyrrolidin-3-yl)propan-2-yl)amino)-4-methyl-1-oxopentan-2-yl) carbamate], less than 4.70; for `CC(C)C[C@H](NC(=O)OC1CCCC1Cc1ccccc1)C(=O)N[C@@H](C[C@@H]1CCNC1=O)C(=O)C(N)=O` (stereo partly drawn) [Compound C240, 2-Benzylcyclopentyl ((S)-1-(((S)-4-amino-3,4-dioxo-1-((S)-2-oxopyrrolidin-3-yl)butan-2-yl)amino)-4-methyl-1-oxopentan-2-yl)carbamate], 6.64.
For `O=C(N[C@@H](CC1CCCCC1)C(=O)N[C@@H](C[C@@H]1CCNC1=O)C(=O)C(=O)NC1CC1)OC(Cc1cccc(Cl)c1)c1cccc(Cl)c1` (stereo partly drawn) [Compound C241, 1,2-Bis(3-chlorophenyl)ethyl ((S)-3-cyclohexyl-1-(((S)-4-(cyclopropylamino)-3,4-dioxo-1-((S)-2-oxopyrrolidin-3-yl)butan-2-yl)amino)-1-oxopropan-2-yl)carbamate], the pIC50 is 5.63.
With `CC(C)C[C@H](NC(=O)OC(Cc1cccc(Cl)c1)c1cccc(Cl)c1)C(=O)N[C@@H](C[C@@H]1CCNC1=O)C(=O)C(=O)NC1CC1` (stereo partly drawn) [Compound C242, 1,2-Bis(3-chlorophenyl)ethyl ((S)-1-(((S)-4-(cyclopropylamino)-3,4-dioxo-1-((S)-2-oxopyrrolidin-3-yl)butan-2-yl)amino)-4-methyl-1-oxopentan-2-yl)carbamate], the pIC50 was 7.13.
For the compound `CC(C)C[C@H](NC(=O)OC(Cc1cccc(Cl)c1)c1ccccc1)C(=O)N[C@@H](C[C@@H]1CCNC1=O)C(=O)C(=O)N1CCCCC1` (stereo partly drawn) [Compound C243, 2-(3-Chlorophenyl)-1-phenylethyl ((S)-1-(((S)-3,4-dioxo-1-((S)-2-oxopyrrolidin-3-yl)-4-(piperidin-1-yl)butan-2-yl)amino)-4-methyl-1-oxopentan-2-yl) carbamate], the pIC50 was less than 4.70.
As for `CC1(C)CC(CC(NC(=O)[C@H](CC2CCCCC2)NC(=O)OCc2cccc(Cl)c2)C(=O)C(=O)NC2CC2)C(=O)N1` (stereo partly drawn) [Compound C244, 3-Chlorobenzyl ((2S)-3-cyclohexyl-1-((4-(cyclopropylamino)-1-(5,5-dimethyl-2-oxopyrrolidin-3-yl)-3,4-dioxobutan-2-yl)amino)-1-oxopropan-2-yl) carbamate], the pIC50 was 5.76.
For `CC1(C)CC(CC(NC(=O)[C@H](CC2CCCCC2)NC(=O)OC(c2ccc(Cl)cc2)C(C)(C)c2cccc(Cl)c2)C(=O)C(=O)NC2CC2)C(=O)N1` (stereo partly drawn) [Compound C245] the value was 5.70; for `CC(C)C[C@H](NC(=O)OC(c1ccc(Cl)cc1)C(C)(C)c1cccc(Cl)c1)C(=O)N[C@H](C=O)C[C@@H]1CCNC1=O` (stereo partly drawn) [Compound C246], 6.28.
Take `CC(C)C[C@H](NC(=O)OC(c1ccc(F)cc1)C(C)(C)c1cccc(Cl)c1)C(=O)N[C@@H](C[C@@H]1CCNC1=O)C(=O)C(=O)NC1CC1` (stereo partly drawn) [Compound C247]: the pIC50 is 7.10.
For `CC(C)C[C@H](NC(=O)OC(c1ccccc1)C(C)(C)c1cccc(Cl)c1)C(=O)N[C@@H](C[C@@H]1CCNC1=O)C(=O)C(=O)N1CCN(C)CC1` (stereo partly drawn) [Compound C248], the pIC50 was 5.16.
For `CC(C)C[C@H](NC(=O)OC(Cc1cccc(Cl)c1)c1ccccc1)C(=O)N[C@@H](C[C@@H]1CCNC1=O)C(=O)NS(=O)(=O)C1CC1` (stereo partly drawn) [Compound C249] the value was less than 4.70; for `O=C[C@H](C[C@@H]1CCNC1=O)NC(=O)[C@H](CC1CCCCC1)NC(=O)OC(c1cccc(Cl)c1)C1(c2cccc(Cl)c2)CC1` (stereo partly drawn) [Compound C250, (3-Chlorophenyl)(1-(3-chlorophenyl)cyclopropyl)methyl ((S)-3-cyclohexyl-1-oxo-1-(((S)-1-oxo-3-((S)-2-oxopyrrolidin-3-yl)propan-2-yl)amino)propan-2-yl)carbamate], 8.00.
Turning to `CC(C)C[C@H](NC(=O)OC(c1ccccc1)C(F)(F)c1cccc(Cl)c1)C(=O)N[C@@H](C[C@@H]1CCNC1=O)C(=O)C(N)=O` (stereo partly drawn) [Compound C251], the pIC50 is 11.10.
Consider `CC(C)(c1cccc(Cl)c1)C(OC(=O)N[C@@H](Cc1ccccc1)C(=O)N[C@@H](C[C@@H]1CCNC1=O)C(=O)C(N)=O)c1ccccc1` (stereo partly drawn) [Compound C254], for which the pIC50 is 5.37.
In the case of `NC(=O)C(=O)[C@H](C[C@@H]1CCNC1=O)NC(=O)[C@H](Cc1ccccc1)NC(=O)OC(CCc1ccccc1)c1ccccc1` (stereo partly drawn) [Compound C255], the pIC50 is 7.15.
Regarding `CC(C)C[C@H](NC(=O)OCCCc1ccccc1)C(=O)N[C@@H](C[C@@H]1CCNC1=O)C(=O)C(N)=O` [Compound C256], the pIC50 was 6.49.
For the compound `CC(C)(c1cccc(Cl)c1)C(OC(=O)N[C@@H](Cc1ccccc1)C(=O)N[C@H](C=O)C[C@@H]1CCNC1=O)c1ccccc1` (stereo partly drawn) [Compound C257], the pIC50 was less than 4.70.
For `CC(C)C[C@H](NC(=O)OC(c1ccccc1)C(F)(F)c1cccc(Cl)c1)C(=O)N[C@@H](C[C@@H]1CCNC1=O)C(=O)C(=O)NC1CC1` (stereo partly drawn) [Compound C258] the value was 7.05.
For `CC(C)C[C@H](NC(=O)OC(CCc1ccccc1)c1ccccc1)C(=O)N[C@H](C=O)C[C@@H]1CCNC1=O` (stereo partly drawn) [Compound C259] the value was 7.30.
`CC(C)C[C@H](NC(=O)OC(c1ccccc1)C(C)(C)c1cccc(Cl)c1)C(=O)N[C@@H](C[C@@H]1CCNC1=O)C(=O)C(=O)NCCN(C)C` (stereo partly drawn) [Compound C260]: the pIC50 was 5.94.
Next, `CC(C)C[C@H](NC(=O)OC(c1ccccc1)C(C)(C)c1cccc(Cl)c1)C(=O)N[C@@H](C[C@@H]1CCNC1=O)C(=O)C(=O)N1CCN(C(=O)OC(C)(C)C)CC1` (stereo partly drawn) [Compound C261]: 4.77; `O=C[C@H](C[C@@H]1CCNC1=O)NC(=O)[C@H](CC1CCCCC1)NC(=O)O[C@@H]1CCC[C@H]1Cc1cccc(Cl)c1` [Compound C262]: 7.70.
As for `O=C(N[C@@H](CC1CCCCC1)C(=O)N[C@@H](C[C@@H]1CCNC1=O)C(=O)C(=O)NC1CC1)O[C@H]1CCC[C@@H]1Cc1cccc(Cl)c1` [Compound C264], the pIC50 was 6.17.
